From patent US20250353891A1 (MEDIMMUNE LIMITED, priority 2022, published 2025)
Starred links: 1 amine or outer side, 2 acyl side, 3 side chain; linkers in the order of their positions; H or OH if unused. Non-standard residues stand in square brackets, D forms with d. Residues, ends and D or L forms follow the SMILES beside them. Groups on a side chain read outwards from the residue. *: point of attachment. C18 diacid = O=C(O)CCCCCCCCCCCCCCCCC(=O)*; γGlu = O=C(O)[C@H](CCC(=O)[*:2])N[*:1]; Palmitoyl = CCCCCCCCCCCCCCCC(=O)*; αMeF = C[C@](N)(Cc1ccccc1)C(=O)O; Myristoyl = CCCCCCCCCCCCCC(=O)*; αMeS = C[C@](N)(CO)C(=O)O; PEG2 = NCCOCCOCCC(=O)O; AEEA = NCCOCCOCC(=O)O; Aib = CC(C)(N)C(=O)O

How the values were obtained:
[1] = biological target: human glucagon receptor (hGCGR) (Homo sapiens, UniProt P47871); experiment: cAMP production (HTRF) in CHO cells expressing hGCGR; format: cell-based; set-up: expressed in transfected cells; conditions: Table 6, peptides modified at position 17; cAMP in CHO hGCGR cells; geometric mean; read-out: hGluc-R EC50
Sequence of human glucagon receptor (hGCGR) (P47871 26-477): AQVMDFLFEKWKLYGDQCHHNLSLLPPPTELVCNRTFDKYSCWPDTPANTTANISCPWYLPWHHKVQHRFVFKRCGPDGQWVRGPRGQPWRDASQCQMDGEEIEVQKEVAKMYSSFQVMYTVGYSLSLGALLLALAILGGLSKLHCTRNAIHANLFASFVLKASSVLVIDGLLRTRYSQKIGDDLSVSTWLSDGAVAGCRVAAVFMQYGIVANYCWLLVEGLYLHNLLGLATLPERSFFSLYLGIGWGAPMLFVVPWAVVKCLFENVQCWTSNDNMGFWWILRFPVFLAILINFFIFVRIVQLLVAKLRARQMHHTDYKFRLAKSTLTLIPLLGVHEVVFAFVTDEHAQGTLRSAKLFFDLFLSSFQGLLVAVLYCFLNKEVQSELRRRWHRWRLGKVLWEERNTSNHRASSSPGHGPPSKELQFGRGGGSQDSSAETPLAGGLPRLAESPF
Summary of the method: (§1)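 Read-out: HTRF cAMP (anti-cAMP cryptate donor, cAMP-d2 acceptor in conjugate/lysis buffer), converted to % Delta F and fitted by 4-parameter logistic for EC50. Cell densities were 1×10^5 cells/mL (hGLP-1R) or 2×10^5 cells/mL (hGCGR). Stimulation lasted 30 min at room temperature.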

[2] = biological target: human GLP-1 receptor (hGLP-1R) (Homo sapiens, UniProt P43220); experiment: cAMP production (HTRF) in CHO cells expressing hGLP-1R; format: cell-based; set-up: expressed in transfected cells; conditions: for % Relative Potency Ratio: Table 6, % GLP-1R activity relative to GLP-1 / % GlucR activity relative to glucagon; for EC50: Table 6, peptides modified at position 17, cAMP in CHO hGLP-1R cells, geometric mean, read-out: hGLP-1R EC50
Sequence of human GLP-1 receptor (hGLP-1R) (P43220 24-463): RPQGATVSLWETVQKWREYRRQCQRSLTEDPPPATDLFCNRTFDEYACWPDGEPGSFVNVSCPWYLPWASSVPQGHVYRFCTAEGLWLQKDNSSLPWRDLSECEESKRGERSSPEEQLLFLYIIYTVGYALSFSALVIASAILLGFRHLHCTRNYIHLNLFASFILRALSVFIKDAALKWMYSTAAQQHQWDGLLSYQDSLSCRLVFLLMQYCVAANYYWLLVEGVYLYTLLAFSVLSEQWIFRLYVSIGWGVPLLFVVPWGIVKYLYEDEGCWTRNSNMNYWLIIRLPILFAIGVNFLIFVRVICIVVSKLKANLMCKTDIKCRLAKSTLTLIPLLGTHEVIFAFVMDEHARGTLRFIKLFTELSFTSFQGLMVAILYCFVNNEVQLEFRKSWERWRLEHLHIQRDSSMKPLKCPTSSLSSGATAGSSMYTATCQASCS
Summary of the method: as §1

EC50 [1] | % Relative Potency Ratio [2] | EC50 [2] | SMILES
0.015 nM | 50.1 | – | CCCCCCCCCCCCCCCC(=O)N[C@@H](CCC(=O)NCCOCCOCCC(=O)NCCOCCOCCC(=O)NCCCC[C@H](NC(=O)[C@H](CO)NC(=O)[C@H](CC(=O)O)NC(=O)[C@H](CC(C)C)NC(=O)[C@@H](NC(=O)[C@H](CCCCN)NC(=O)[C@H](CO)NC(=O)[C@@H](NC(=O)[C@H](CC(=O)O)NC(=O)[C@H](CO)NC(=O)[C@@H](NC(=O)[C@](C)(Cc1ccccc1)NC(=O)[C@H](CO)NC(=O)CNC(=O)[C@H](CCC(N)=O)NC(=O)[C@](C)(CO)NC(=O)[C@@H](N)Cc1c[nH]cn1)[C@@H](C)O)C(C)C)[C@@H](C)CC)C(=O)N[C@@H](C)C(=O)N[C@@H](C)C(=O)N[C@@H](CCC(N)=O)C(=O)N[C@@H](CC(=O)O)C(=O)N[C@@](C)(Cc1ccccc1)C(=O)N[C@H](C(=O)N[C@@H](CCC(N)=O)C(=O)NC(C)(C)C(=O)N[C@H](C(=O)N[C@H](C(=O)N[C@@H](CC(N)=O)C(=O)N[C@H](C(N)=O)[C@@H](C)O)[C@@H](C)CC)[C@@H](C)CC)C(C)C)C(=O)O [Peptide 134] (H-H[αMeS]QGS[αMeF]TSDVSKILDSK([PEG2-PEG2-γGlu-Palmitoyl])AAQD[αMeF]VQ[Aib]IINT-NH2; N-terminus assumed)
0.015 nM | 72.8 | – | CCCCCCCCCCCCCC(=O)N[C@@H](CCC(=O)NCCOCCOCCC(=O)NCCOCCOCCC(=O)NCCCC[C@H](NC(=O)[C@H](CO)NC(=O)[C@H](CC(=O)O)NC(=O)[C@H](CC(C)C)NC(=O)[C@@H](NC(=O)[C@H](CCCCN)NC(=O)[C@H](CO)NC(=O)[C@@H](NC(=O)[C@H](CC(=O)O)NC(=O)[C@H](CO)NC(=O)[C@@H](NC(=O)[C@](C)(Cc1ccccc1)NC(=O)[C@H](CO)NC(=O)CNC(=O)[C@H](CCC(N)=O)NC(=O)[C@](C)(CO)NC(=O)[C@@H](N)Cc1c[nH]cn1)[C@@H](C)O)C(C)C)[C@@H](C)CC)C(=O)N[C@@H](C)C(=O)N[C@@H](C)C(=O)N[C@@H](CCC(N)=O)C(=O)N[C@@H](CC(=O)O)C(=O)N[C@@](C)(Cc1ccccc1)C(=O)N[C@H](C(=O)N[C@@H](CCC(N)=O)C(=O)NC(C)(C)C(=O)N[C@H](C(=O)N[C@H](C(=O)N[C@@H](CC(N)=O)C(=O)N[C@H](C(N)=O)[C@@H](C)O)[C@@H](C)CC)[C@@H](C)CC)C(C)C)C(=O)O [Peptide 135] (H-H[αMeS]QGS[αMeF]TSDVSKILDSK([PEG2-PEG2-γGlu-Myristoyl])AAQD[αMeF]VQ[Aib]IINT-NH2; N-terminus assumed)
0.268 nM | 3.7 | 0.143 nM | CC(C)C[C@H](NC(=O)[C@H](CC(C)C)NC(=O)[C@H](Cc1c[nH]c2ccccc12)NC(=O)[C@H](CCCNC(=N)N)NC(=O)[C@@H](NC(=O)[C@H](Cc1ccccc1)NC(=O)[C@H](CC(=O)O)NC(=O)[C@H](CCC(N)=O)NC(=O)[C@H](C)NC(=O)[C@H](CCCNC(=N)N)NC(=O)[C@H](CCCCNC(=O)CC[C@H](NC(=O)CC[C@H](NC(=O)COCCOCCNC(=O)COCCOCCNC(=O)CC[C@H](NC(=O)CC[C@H](NC(=O)CCCCCCCCCCCCCCCCC(=O)O)C(=O)O)C(=O)O)C(=O)O)C(=O)O)NC(=O)[C@H](CO)NC(=O)[C@H](CC(=O)O)NC(=O)[C@H](CC(C)C)NC(=O)[C@](C)(Cc1ccccc1)NC(=O)[C@H](CCCCN)NC(=O)[C@H](CO)NC(=O)[C@@H](NC(=O)[C@H](CC(=O)O)NC(=O)[C@H](CO)NC(=O)[C@@H](NC(=O)[C@H](Cc1ccccc1)NC(=O)[C@@H](NC(=O)CNC(=O)[C@H](CCC(N)=O)NC(=O)C(C)(C)NC(=O)[C@@H](N)Cc1c[nH]cn1)[C@@H](C)O)[C@@H](C)O)C(C)C)C(C)C)C(=O)N[C@@H](CCC(=O)O)C(=O)NCC(=O)NC(C)(C)C(=O)O [Peptide 137] (H-H[Aib]QGTFTSDVSK[αMeF]LDSK([γGlu-γGlu-AEEA-AEEA-γGlu-γGlu-C18 diacid])RAQDFVRWLLEG[Aib]-OH; N-terminus assumed)
0.184 nM | 3.5 | 0.104 nM | CC(C)C[C@H](NC(=O)[C@H](Cc1c[nH]c2ccccc12)NC(=O)[C@H](CCCNC(=N)N)NC(=O)[C@@H](NC(=O)[C@H](Cc1ccccc1)NC(=O)[C@H](CC(=O)O)NC(=O)[C@H](CCC(N)=O)NC(=O)[C@H](C)NC(=O)[C@H](CCCNC(=N)N)NC(=O)[C@H](CCCCNC(=O)CC[C@H](NC(=O)CC[C@H](NC(=O)COCCOCCNC(=O)COCCOCCNC(=O)CC[C@H](NC(=O)CC[C@H](NC(=O)CCCCCCCCCCCCCCCCC(=O)O)C(=O)O)C(=O)O)C(=O)O)C(=O)O)NC(=O)[C@H](CO)NC(=O)[C@H](CC(=O)O)NC(=O)[C@H](CC(C)C)NC(=O)[C@](C)(Cc1ccccc1)NC(=O)[C@H](CCCCN)NC(=O)[C@H](CO)NC(=O)[C@@H](NC(=O)[C@H](CC(=O)O)NC(=O)[C@H](CO)NC(=O)[C@@H](NC(=O)[C@H](Cc1ccccc1)NC(=O)[C@@H](NC(=O)CNC(=O)[C@H](CCC(N)=O)NC(=O)C(C)(C)NC(=O)[C@@H](N)Cc1c[nH]cn1)[C@@H](C)O)[C@@H](C)O)C(C)C)C(C)C)C(=O)N[C@@H](CC(C)C)C(=O)N[C@@H](CCC(=O)O)C(=O)NC(C)(C)C(=O)NCC(=O)O [Peptide 138] (H-H[Aib]QGTFTSDVSK[αMeF]LDSK([γGlu-γGlu-AEEA-AEEA-γGlu-γGlu-C18 diacid])RAQDFVRWLLE[Aib]G-OH; N-terminus assumed)
0.984 nM | 3.1 | 0.63 nM | CC(C)C[C@H](NC(=O)[C@H](Cc1c[nH]c2ccccc12)NC(=O)[C@H](CCCNC(=N)N)NC(=O)[C@@H](NC(=O)[C@H](Cc1ccccc1)NC(=O)[C@H](CC(=O)O)NC(=O)[C@H](CCC(N)=O)NC(=O)[C@H](C)NC(=O)[C@H](CCCNC(=N)N)NC(=O)[C@H](CCCCNC(=O)CC[C@H](NC(=O)CC[C@H](NC(=O)COCCOCCNC(=O)COCCOCCNC(=O)CC[C@H](NC(=O)CC[C@H](NC(=O)CCCCCCCCCCCCCCCCCCC(=O)O)C(=O)O)C(=O)O)C(=O)O)C(=O)O)NC(=O)[C@H](CO)NC(=O)[C@H](CC(=O)O)NC(=O)[C@H](CC(C)C)NC(=O)[C@](C)(Cc1ccccc1)NC(=O)[C@H](CCCCN)NC(=O)[C@H](CO)NC(=O)[C@@H](NC(=O)[C@H](CC(=O)O)NC(=O)[C@H](CO)NC(=O)[C@@H](NC(=O)[C@H](Cc1ccccc1)NC(=O)[C@@H](NC(=O)CNC(=O)[C@H](CCC(N)=O)NC(=O)C(C)(C)NC(=O)[C@@H](N)Cc1c[nH]cn1)[C@@H](C)O)[C@@H](C)O)C(C)C)C(C)C)C(=O)N[C@@H](CC(C)C)C(=O)N[C@@H](CCC(=O)O)C(=O)NC(C)(C)C(=O)NCC(=O)O [Peptide 139]
0.392 nM | 2.9 | 0.264 nM | CC(C)C[C@H](NC(=O)[C@H](Cc1c[nH]c2ccccc12)NC(=O)[C@H](C)NC(=O)[C@@H](NC(=O)[C@H](Cc1ccccc1)NC(=O)[C@H](CC(=O)O)NC(=O)[C@H](CCC(N)=O)NC(=O)[C@H](C)NC(=O)[C@H](CCCNC(=N)N)NC(=O)[C@H](CCCCNC(=O)COCCOCCNC(=O)COCCOCCNC(=O)CC[C@H](NC(=O)CCCCCCCCCCCCCCCCC(=O)O)C(=O)O)NC(=O)[C@H](CO)NC(=O)[C@H](CC(=O)O)NC(=O)[C@H](CC(C)C)NC(=O)[C@](C)(Cc1ccccc1)NC(=O)[C@H](CCCCN)NC(=O)[C@H](CO)NC(=O)[C@@H](NC(=O)[C@H](CC(=O)O)NC(=O)[C@H](CO)NC(=O)[C@@H](NC(=O)[C@H](Cc1ccccc1)NC(=O)[C@@H](NC(=O)CNC(=O)[C@H](CCC(N)=O)NC(=O)C(C)(C)NC(=O)[C@@H](N)Cc1c[nH]cn1)[C@@H](C)O)[C@@H](C)O)C(C)C)C(C)C)C(=O)N[C@@H](CC(C)C)C(=O)N[C@@H](CCC(=O)O)C(=O)NC(C)(C)C(=O)NCC(=O)O [Peptide 141] (H-H[Aib]QGTFTSDVSK[αMeF]LDSK([AEEA-AEEA-γGlu-C18 diacid])RAQDFVAWLLE[Aib]G-OH; N-terminus assumed)
0.108 nM | 3.6 | 0.0594 nM | CC(C)C[C@H](NC(=O)[C@H](Cc1c[nH]c2ccccc12)NC(=O)[C@H](C)NC(=O)[C@@H](NC(=O)[C@H](Cc1ccccc1)NC(=O)[C@H](CC(=O)O)NC(=O)[C@H](CCCNC(=N)N)NC(=O)[C@H](C)NC(=O)[C@H](CCCNC(=N)N)NC(=O)[C@H](CCCCNC(=O)COCCOCCNC(=O)COCCOCCNC(=O)CC[C@H](NC(=O)CCCCCCCCCCCCCCCCC(=O)O)C(=O)O)NC(=O)[C@H](CO)NC(=O)[C@H](CC(=O)O)NC(=O)[C@H](CC(C)C)NC(=O)[C@](C)(Cc1ccccc1)NC(=O)[C@H](CCCCN)NC(=O)[C@H](CO)NC(=O)[C@@H](NC(=O)[C@H](CC(=O)O)NC(=O)[C@H](CO)NC(=O)[C@@H](NC(=O)[C@H](Cc1ccccc1)NC(=O)[C@@H](NC(=O)CNC(=O)[C@H](CCC(N)=O)NC(=O)C(C)(C)NC(=O)[C@@H](N)Cc1c[nH]cn1)[C@@H](C)O)[C@@H](C)O)C(C)C)C(C)C)C(=O)N[C@@H](CC(C)C)C(=O)N[C@@H](CCC(=O)O)C(=O)NC(C)(C)C(=O)NCC(=O)O [Peptide 142] (H-H[Aib]QGTFTSDVSK[αMeF]LDSK([AEEA-AEEA-γGlu-C18 diacid])RARDFVAWLLE[Aib]G-OH; N-terminus assumed)
